The values that follow come from patent publication US12692241B2, “Substituted triazine compound” (Nico Therapeutics, Inc., priority 2021, dated 2026).

Molecules are shown by their SMILES. Where a name gives a salt, the structure may show the parent alone.

The first test concerns IL-1β production in THP-1 cells (LPS and ATP; NLRP3 inflammasome activation). The experiment in a line: THP-1 IL-1β production inhibitory test. In kind it is cell-based, human. The conditions noted are these: Homo sapiens, THP-1, 2 h, PMA-differentiated THP-1 cells, LPS 50 ng/mL and ATP 5 mM, 2 hours, ELISA; read-out: IC50 (nM), IL-1β production. On the procedure: THP-1 IL-1β Production Inhibitory Test
To THP-1 cells, 50 ng/mL PMA (phorbol myristate acetate, SIGMA, P1585) was added at 37° C. and then the cells were cultured for 2 days. […] The cells were cultured at 37° C. for 15 minutes. LPS (lipopolysaccharide, SIMGA, L2880) and ATP (adenosine triphosphate, SIGMA, A2383) were added such that the final concentrations of them became 50 ng/mL and 5 mM, respectively. The cells were cultured at 37° C. for 2 hours. The supernatant was collected and the concentration of IL-1β was measured by ELISA (DuoSet ELISA human IL-1β, R&D Systems, DY201). The concentration of IL-1β was plotted against the logarithm of the concentration of the test compound, and the IC50 value was calculated by sigmoidal Emax model nonlinear regression analysis.
On the technique in general: An ELISA detects its analyte on a solid surface through an enzyme-linked reagent.
A word on the IC50: it is the concentration at which inhibition is half-maximal. Turning to `Cc1nc(N[C@@H]2CNC2=O)nnc1-c1ccc(C(F)(F)F)cc1O` [Example 65], the IC50 amounted to 110 nM.

`Cc1nc(N[C@H]2CCNC2=O)nnc1-c1ccc(Cl)cc1O` [Example 70]: the IC50 came out at 10 nM.

`Cc1nc(N[C@@H]2CC[C@@H](O)C2)nnc1-c1ccc(C(F)(F)F)cc1O` [Example 30]: the IC50 is 18 nM.

For the compound `CC(=O)N1CCO[C@@H](CNc2nnc(-c3ccc(C(F)(F)F)cc3O)c(C)n2)C1` [Example 155], the IC50 was found to be 370 nM.

`CC(=O)NC[C@H]1C[C@@H](Nc2nnc(-c3ccc(C(F)(F)F)cc3O)c(C)n2)C1` [Example 105]: the IC50 stood at 36 nM.

Regarding `Cc1nc(NCC(C)(C)CO)nnc1-c1ccc(C(F)(F)F)cc1O` [Example 9], the IC50 is 59 nM.

Turning to `CC(=O)NCCC1(CNc2nnc(-c3ccc(C(F)(F)F)cc3O)c(C)n2)CCC1` [Example 104], the IC50 is 91 nM.

Turning to `Oc1cc(C(F)(F)F)ccc1-c1nnc(N[C@@H]2CCCC[C@H]2O)nc1C1CC1` [Example 109], the concentration for half-maximal inhibition (IC50) was 17 nM.

In the case of `Cc1nc(N[C@@H]2CCCC[C@@H](O)C2)nnc1-c1ccc(C(F)(F)F)cc1O` [Example 79], the IC50 was 14 nM.

On to `Cc1nc(N[C@@H]2CCCNC2)nnc1-c1ccc(C(F)(F)F)cc1O` [Example 138], for which the IC50 worked out at 5.6 nM.

Take `Cc1nc(N[C@@H]2CCOC[C@H]2O)nnc1-c1ccc(C(F)(F)F)cc1O` [Example 11]: the IC50 was determined as 15 nM.

On to `Cc1nc(N[C@@H]2CCC[C@H](O)C2)nnc1-c1ccc(C(F)F)cc1O` [Example 175], for which the IC50 came out at 24 nM.

Turning to `Cc1nc(NC[C@@H](C)O)nnc1-c1ccc(C(F)(F)F)cc1O` [Example 4], the IC50 stood at 35 nM.

In the case of `Cc1ccc(-c2nnc(N[C@@H]3CCCC[C@H]3O)nc2C)c(O)c1` [Example 37], the IC50 came to 11 nM.

Regarding `Cc1nc(NCC2CCCCO2)nnc1-c1ccc(C(F)(F)F)cc1O` (stereo not drawn) [Example 96], the IC50 stood at 81 nM.

With `CC(=O)NCCCCNc1nnc(-c2ccc(C(F)(F)F)cc2O)c(C)n1` [Example 86], the half-inhibitory concentration (IC50) was found to be 12 nM.

With `Cc1nc(N[C@@H]2CCC[C@H](O)C2)nnc1-c1ccc(OC(F)(F)F)cc1O` [Example 84], the IC50 came out at 38 nM.

As to `CC(=O)NC[C@H]1C[C@H](Nc2nnc(-c3ccc(C(F)(F)F)cc3O)c(C)n2)C1` [Example 106], the IC50 was determined as 26 nM.

Take `Cc1nc(N[C@@H]2CC[C@H](O)C2)nnc1-c1ccc(C(F)(F)F)cc1O` [Example 35]: the IC50 was 50 nM.

As for `Cc1nc(N[C@H]2[C@@H]3COC[C@@H]32)nnc1-c1ccc(C(F)(F)F)cc1O` [Example 24], the IC50 worked out at 40 nM.

As to `Cc1nc(NC2(CCO)CC2)nnc1-c1ccc(C(F)(F)F)cc1O` [Example 34], the IC50 worked out at 49 nM.

As to `Cc1nc(NCc2cccnc2)nnc1-c1ccc(C(F)(F)F)cc1O` [Example 92], the IC50 was 200 nM.

As for `Cc1nc(Nc2cnn(CCO)c2)nnc1-c1ccc(C(F)(F)F)cc1O` [Example 89], the IC50 is 230 nM.

For `Cc1nc(NC2(CO)COC2)nnc1-c1ccc(C(F)(F)F)cc1O` [Example 29], the IC50 was found to be 84 nM.

Turning to `Oc1cc(Cl)ccc1-c1nnc(N[C@@H]2CCOC[C@H]2O)nc1C1CC1` [Example 113], the IC50 amounted to 37 nM.

For `Cc1nc(N[C@H]2CCCNC2=O)nnc1-c1ccc(C(F)(F)F)cc1O` [Example 45], the IC50 amounted to 24 nM.

On to `Cc1nc(N[C@@H]2CCCC[C@H]2N)nnc1-c1ccc(Cl)cc1O` [Example 146], for which the IC50 came out at 12 nM.

For `CC(=O)N1C[C@@H](O)[C@H](Nc2nnc(-c3ccc(C(F)(F)F)cc3O)c(C)n2)C1` [Example 163, 1-[(3R,4R)-3-hydroxy-4-({6-[2-hydroxy-4-(trifluoromethyl)phenyl]-5-methyl-1,2,4-triazin-3-yl}amino)pyrrolidin-1-yl]ethan-1-one], the IC50 amounted to 640 nM.

Take `Cc1nc(N[C@@H]2CCC[C@H](O)C2)nnc1-c1ccc(Cl)cc1O` [Example 82]: the IC50 was 30 nM.

With `Cc1ccc(-c2nnc(N[C@H]3C[C@@](C)(O)C3)nc2C)c(O)c1` [Example 51], the IC50 was found to be 33 nM.

With `Cc1nc(N[C@H]2CCC[C@@H](O)C2)nnc1-c1ccc(C(F)(F)F)cc1O` [Example 167], the IC50 is 580 nM.

Regarding `Cc1nc(N[C@@H]2CCCC[C@@H]2O)nnc1-c1ccc(C(F)(F)F)cc1O` [Example 40], the IC50 was determined as 22 nM.

For `Cc1nc(NCC2CC2)nnc1-c1ccc(C(F)(F)F)cc1O` [Example 91], the 50% inhibitory concentration (IC50) came out at 52 nM.

With `Oc1cc(C(F)(F)F)ccc1-c1nnc(N[C@@H]2CCC[C@H]2O)nc1C1CC1` [Example 110], the IC50 worked out at 15 nM.

As to `CC(=O)N1CCOC[C@@H]1CNc1nnc(-c2ccc(C(F)(F)F)cc2O)c(C)n1` [Example 158], the IC50 stood at 850 nM.

With `Cc1nc(Nc2cc[nH]n2)nnc1-c1ccc(C(F)(F)F)cc1O` [Example 150], the IC50 turned out to be 6.8 nM.

Regarding `Cc1nc(NCC2(O)CCC2)nnc1-c1ccc(C(F)(F)F)cc1O` [Example 17], the IC50 was determined as 66 nM.

Regarding `Cc1nc(N[C@@H]2CC[C@H](C(=O)O)C2)nnc1-c1ccc(C(F)(F)F)cc1O` [Example 182, (1S,3R)-3-({6-[2-hydroxy-4-(trifluoromethyl)phenyl]-5-methyl-1,2,4-triazin-3-yl}amino)cyclopentane-1-carboxylic acid], the IC50 turned out to be 67 nM.

Regarding `O=C1NCC[C@@H]1Nc1nnc(-c2ccc(Cl)cc2O)c(C2CC2)n1` [Example 125], the IC50 is 33 nM.

As for `Cc1nc(N[C@H]2CCNC2=O)nnc1-c1ccc(C(F)(F)F)cc1O` [Example 44], the IC50 was 7 nM.

In the case of `Cc1nc(N[C@@H]2CCCC[C@H]2O)nnc1-c1ccc(C(F)(F)F)cc1O` [Example 1, 2-(3-{[(1R,2R)-2-hydroxycyclohexyl]amino}-5-methyl-1,2,4-triazin-6-yl)-5-(trifluoromethyl)phenol], the IC50 is 7.6 nM.

Consider `Cc1nc(N[C@@H]2CCCN(CC(=O)O)C2)nnc1-c1ccc(C(F)(F)F)cc1O` [Example 183], for which the IC50 was found to be 150 nM.

Turning to `Cc1nc(NC[C@H]2COCCN2)nnc1-c1ccc(C(F)(F)F)cc1O` [Example 142], the IC50 is 340 nM.

For the compound `CO[C@H](C)CNc1nnc(-c2ccc(C(F)(F)F)cc2O)c(C)n1` [Example 10], the concentration for half-maximal inhibition (IC50) is 40 nM.

Consider `Cc1nc(NCc2cc[nH]n2)nnc1-c1ccc(C(F)(F)F)cc1O` [Example 94], for which the IC50 stood at 70 nM.

Take `Cc1nc(Nc2ccn(CCO)n2)nnc1-c1ccc(C(F)(F)F)cc1O` [Example 90]: the IC50 amounted to 53 nM.

Regarding `Cc1nc(N[C@@H]2CCCC[C@H]2N)nnc1-c1ccc(OC(F)(F)F)cc1O` [Example 145], the IC50 came to 39 nM.

Take `Cc1n[nH]cc1Nc1nnc(-c2ccc(C(F)(F)F)cc2O)c(C)n1` [Example 140]: the IC50 was determined as 160 nM.

As for `Oc1cc(OC(F)(F)F)ccc1-c1nnc(N[C@@H]2CCCC[C@H]2O)nc1C1CC1` [Example 116], the half-inhibitory concentration (IC50) stood at 23 nM.

On to `Cc1nc(N[C@@H]2CCCNC2=O)nnc1-c1ccc(C(F)(F)F)cc1O` [Example 42], for which the IC50 stood at 28 nM.

`Cc1nc(Nc2cn[nH]c2)nnc1-c1ccc(C(F)(F)F)cc1O` [Example 149, 2-{5-methyl-3-[(1H-pyrazol-4-yl)amino]-1,2,4-triazin-6-yl}-5-(trifluoromethyl)phenol]: the IC50 is 23 nM.

For the compound `CC(=O)N1CC[C@@H](Nc2nnc(-c3ccc(C(F)(F)F)cc3O)c(C)n2)[C@H](O)C1` [Example 159, 1-[(3R,4R)-3-hydroxy-4-({6-[2-hydroxy-4-(trifluoromethyl)phenyl]-5-methyl-1,2,4-triazin-3-yl}amino)piperidin-1-yl]ethan-1-one], the IC50 worked out at 120 nM.

Consider `Cc1nc(NC[C@H](C)CO)nnc1-c1ccc(C(F)(F)F)cc1O` [Example 2], for which the IC50 amounted to 32 nM.

Regarding `Cc1nc(Nc2ccn(C[C@@H](C)O)n2)nnc1-c1ccc(C(F)(F)F)cc1O` [Example 107], the IC50 worked out at 25 nM.

On to `Cc1nc(N[C@@H]2CCCC[C@H]2O)nnc1-c1ccc(Cl)cc1O` [Example 19], for which the IC50 came out at 7.4 nM.

Turning to `Oc1cc(Cl)ccc1-c1nnc(N[C@@H]2CCCC[C@H]2O)nc1C1CC1` [Example 115], the IC50 stood at 8.5 nM.

As for `Cc1nc(N[C@@H]2CCC(F)(F)C[C@H]2O)nnc1-c1ccc(C(F)(F)F)cc1O` [Example 69], the IC50 was found to be 30 nM.

Take `Cc1nc(NC[C@@H]2CCCO2)nnc1-c1ccc(C(F)(F)F)cc1O` [Example 18]: the IC50 is 88 nM.

Turning to `Cc1nc(N[C@H]2CCCC[C@H]2O)nnc1-c1ccc(C(F)(F)F)cc1O` [Example 20], the IC50 turned out to be 34 nM.

On to `Cc1nc(NC2CCCCC2)nnc1-c1ccc(C(F)(F)F)cc1O` [Example 6], for which the concentration for half-maximal inhibition (IC50) is 26 nM.

Turning to `Cc1nc(N[C@@H]2CCCC[C@H]2O)nnc1-c1ccc(C2CC2)cc1O` [Example 67], the IC50 was determined as 9.6 nM.

The test is the same for the next values; noted with them: Homo sapiens, THP-1, 2 h, read-out: IC50 (nM), IL-1β production.
Consider `COc1ccc(-c2nnc(N[C@@H]3CCCC[C@H]3O)nc2C)c(O)c1` [Example 184, 2-(3-{[(1R,2R)-2-hydroxycyclohexyl]amino}-5-methyl-1,2,4-triazin-6-yl)-5-methoxyphenol monohydrochloride], for which the IC50 was 5.8 nM.

The test is the same for the next values; noted with them: PMA-differentiated THP-1 cells, LPS 50 ng/mL and ATP 5 mM, 2 hours, ELISA; dihydrochloride; read-out: IC50 (nM), IL-1β production.
`Cc1nc(N[C@@H]2CCCC[C@H]2N)nnc1-c1ccc(C(F)(F)F)cc1O` [Example 188, 2-(3-{[(1R,2R)-2-aminocyclohexyl]amino}-5-methyl-1,2,4-triazin-6-yl)-5-(trifluoromethyl)phenol dihydrochloride]: the IC50 was 21 nM.
